pIC50: −log10 of the molar value. Bounds are passed on as bounds.

One test addresses human orexin-2 receptor (Homo sapiens (Human), UniProt O43614). Kind of test: In vitro assay: intracellular calcium measurements (FLIPR), antagonistic activity. Type of test: cell-based. To be noted: CHO cells expressing human orexin-2 receptor, orexin-A agonist, geometric mean, read-out: IC50 Ox2. Put shortly:
(§1)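 IC50s are geometric means, possibly reference-normalized, from FLIPR calcium peaks in CHO cells bearing human orexin-1 or orexin-2 receptor. Fluo-4 AM/probenecid-loaded cells received antagonist for 120 min before challenge with orexin-A (final 3 nM, ~EC70), with responses compared against vehicle controls.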

In another test the target is human orexin-1 receptor (Homo sapiens (Human), UniProt O43613). The test is described as above. The format is cell-based. To be noted: CHO cells expressing human orexin-1 receptor, orexin-A agonist, geometric mean, read-out: IC50 Ox1. In short, it runs like this:
as §1

human orexin-2 receptor, sequence (O43614 whole entry): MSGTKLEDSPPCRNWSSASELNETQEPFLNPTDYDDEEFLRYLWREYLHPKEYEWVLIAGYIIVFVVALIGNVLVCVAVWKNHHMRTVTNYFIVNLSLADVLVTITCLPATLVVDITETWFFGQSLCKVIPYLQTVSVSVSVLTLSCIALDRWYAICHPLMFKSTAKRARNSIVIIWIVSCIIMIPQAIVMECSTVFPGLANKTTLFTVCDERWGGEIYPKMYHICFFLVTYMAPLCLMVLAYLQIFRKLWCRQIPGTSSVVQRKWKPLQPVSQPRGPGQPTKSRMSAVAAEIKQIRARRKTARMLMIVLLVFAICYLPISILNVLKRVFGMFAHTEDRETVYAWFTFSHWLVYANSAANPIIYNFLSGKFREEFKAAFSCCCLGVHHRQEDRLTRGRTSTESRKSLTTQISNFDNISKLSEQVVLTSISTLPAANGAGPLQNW
human orexin-1 receptor, sequence (O43613 whole entry): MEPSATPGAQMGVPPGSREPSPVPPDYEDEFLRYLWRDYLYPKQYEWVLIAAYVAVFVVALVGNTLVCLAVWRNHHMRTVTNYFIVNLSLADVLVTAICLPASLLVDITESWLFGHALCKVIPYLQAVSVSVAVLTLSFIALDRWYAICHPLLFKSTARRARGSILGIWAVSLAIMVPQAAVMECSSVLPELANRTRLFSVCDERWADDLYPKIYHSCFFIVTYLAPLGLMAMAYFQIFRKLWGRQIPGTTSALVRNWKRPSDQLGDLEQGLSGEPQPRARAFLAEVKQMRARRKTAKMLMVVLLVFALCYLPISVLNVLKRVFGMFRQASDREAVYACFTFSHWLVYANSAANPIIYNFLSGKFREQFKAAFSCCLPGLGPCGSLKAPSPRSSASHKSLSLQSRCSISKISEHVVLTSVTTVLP

Turning to `C=C1C[C@@H](c2nc3cc(C(C)(C)C)ccc3[nH]2)N(C(=O)c2cc(Cl)ccc2-n2nccn2)C1` [Ex. 6.161], the pIC50 at human orexin-2 receptor was 8.52; at human orexin-1 receptor, 7.29.
In the case of `Cc1nc(C(=O)N2CC[C@H](C)[C@H]2c2nc3cc(C)c(C)cc3[nH]2)c(-c2cccc(Cl)c2)s1` [Ex. 4.10], the pIC50 on human orexin-2 receptor is 6.08; at human orexin-1 receptor, 8.70.
With `Cc1ccc(C(=O)N2CCC[C@@]2(C)c2nc3cc(OC(F)(F)F)ccc3[nH]2)c(-n2nccn2)c1` [Ex. 5.238], the pIC50 at human orexin-2 receptor is 7.04; on human orexin-1 receptor it was 7.64.
Regarding `COc1ccc(-c2ccc(C)cc2C(=O)N2CCC[C@@]2(C)c2nc3cc(C(F)(F)F)c(Cl)cc3[nH]2)cc1` [Ex. 5.150], the pIC50 on human orexin-2 receptor was 7.31; on human orexin-1 receptor it was 7.43.
`Cc1c(Cl)ccc2[nH]c([C@@H]3[C@@H](C)CCN3C(=O)c3cc(F)ccc3-c3ccccn3)nc12` [Ex. 4.165]: the pIC50 on human orexin-2 receptor was 6.01; on human orexin-1 receptor, 7.70.
For the compound `COc1ccc(-n2nccn2)c(C(=O)N2CCC[C@H]2c2nc3ccc(OC)cc3[nH]2)c1` [Ex. 1.158], the pIC50 was 7.70 on human orexin-2 receptor and 6.27 on human orexin-1 receptor.
In the same order, the values of `C=C1C[C@@H](c2nc3cc(OC)ccc3[nH]2)N(C(=O)c2cc(F)ccc2-n2nccn2)C1` [Ex. 6.18] are 7.54 and 5.82.
In the same order, the values of `Cc1c(Cl)ccc2[nH]c([C@@H]3[C@@H](C)CCN3C(=O)c3cc(F)ccc3-c3ccccc3)nc12` [Ex. 4.164] are 6.14 and 8.15.
For `Cc1c(Cl)ccc2[nH]c([C@]3(C)CCCN3C(=O)c3nc(-c4cccc(C#N)c4)sc3-c3ccc(F)cc3)nc12` [Ex. 5.255], the pIC50 is 6.84 at human orexin-2 receptor and 9.00 at human orexin-1 receptor.
Regarding `CSc1ccc2[nH]c([C@@H]3CCCN3C(=O)c3ccccc3-n3cccn3)nc2c1` [Ex. 1.176], the pIC50 at human orexin-2 receptor is 7.00; at human orexin-1 receptor, 5.66.
Regarding `CSc1cccc2nc([C@@H]3CCCN3C(=O)c3nccnc3-c3cc(C)cc(F)c3)[nH]c12` [Ex. 1.74], the results for the pIC50 at human orexin-2 receptor and at human orexin-1 receptor were 7.00 and 7.28, respectively.
The corresponding values for `Cc1ccc(-c2ccccc2F)c(C(=O)N2CCC[C@@]2(C)c2nc3cc(C(F)(F)F)ccc3[nH]2)c1` [Ex. 5.194] are 7.01 and 7.89.
The corresponding values for `Cc1ccc(-c2ccc(OC(F)(F)F)cc2)c(C(=O)N2CCC[C@@]2(C)c2nc3cc(C(F)(F)F)ccc3[nH]2)c1` [Ex. 5.187] are less than 5.59 and 6.51.
`C=C1C[C@@H](c2nc3cc(OC)ccc3[nH]2)N(C(=O)c2cnc(C)nc2-c2ccccc2)C1` [Ex. 6.16]: the figures for the pIC50 on human orexin-2 receptor and on human orexin-1 receptor were 6.82 and 6.51, respectively.
On to `Cc1nc(C(=O)N2CCC[C@H]2c2nc3cc(Cl)c(C(F)(F)F)cc3[nH]2)c(-c2ccccc2)s1` [Ex. 1.146], for which the pIC50 at human orexin-2 receptor is 7.64; on human orexin-1 receptor it was 8.15.
With `COc1ccc2[nH]c([C@@H]3CCCN3C(=O)c3cc(C)ccc3-n3cccn3)nc2c1` [Ex. 1.171], the pIC50 on human orexin-2 receptor is 7.44; on human orexin-1 receptor it was 5.66.
For `Cc1ccc(-c2ccc(C)cc2C(=O)N2CCC[C@@]2(C)c2nc3cc(C)c(C)cc3n2CCF)cc1` [Ex. 7.40], the pIC50 is 7.41 at human orexin-2 receptor and 7.64 at human orexin-1 receptor.
As for `C[C@@]1(c2nc3cc(C(F)(F)F)ccc3[nH]2)CCCN1C(=O)c1cc(-c2cccnc2)ccc1-c1ccccc1` [Ex. 5.265], the pIC50 at human orexin-2 receptor is 7.49; on human orexin-1 receptor, 8.05.
With `Cc1c(Cl)ccc2[nH]c([C@@H]3[C@@H](C)CCN3C(=O)c3ccccc3-n3nccn3)nc12` [Ex. 4.59], the pIC50 was 7.17 at human orexin-2 receptor and 8.22 on human orexin-1 receptor.
With `Cc1nc(C(=O)N2C[C@H](F)C[C@H]2c2nc3c(C)cccc3[nH]2)c(-c2ccccc2)s1` [Ex. 2.3], the pIC50 on human orexin-2 receptor is 7.21; on human orexin-1 receptor, 7.17.
Consider `CSc1ccc2nc([C@@H]3CCCN3C(=O)c3c(C)cccc3-n3nccn3)[nH]c2c1` [Ex. 1.154], for which the pIC50 is 7.68 on human orexin-2 receptor and 6.32 on human orexin-1 receptor.
`Cc1ccc(-n2cccn2)c(C(=O)N2CCC[C@@]2(C)c2nc3cc(F)c(Br)cc3[nH]2)c1` [Ex. 5.128]: the pIC50 on human orexin-2 receptor is 6.66; at human orexin-1 receptor, 7.70.
Take `Cc1cc(Cl)cc2[nH]c([C@@H]3[C@@H](C)CCN3C(=O)c3cc(Cl)ccc3-n3nccn3)nc12` [Ex. 4.91]: the pIC50 on human orexin-2 receptor was 6.74; at human orexin-1 receptor, 7.77.
In the case of `Cc1nc(C(=O)N2CCC[C@@]2(C)c2nc3c(C)c(Cl)ccc3n2C)c(-c2ccccc2)s1` [Ex. 7.7], the pIC50 at human orexin-2 receptor was 8.52; on human orexin-1 receptor, 8.70.
As to `C=C1C[C@@H](c2nc3cc(C)c(C)cc3n2C)N(C(=O)c2cc(C)ccc2-n2nccn2)C1` [Ex. 7.2], the results for the pIC50 at human orexin-2 receptor and on human orexin-1 receptor were 7.16 and 6.38, respectively.
In the case of `Cc1ccc(-n2nccn2)c(C(=O)N2CCC[C@@]2(C)c2nc3cc(Br)ccc3[nH]2)c1` [Ex. 5.8], the pIC50 at human orexin-2 receptor was 6.89; at human orexin-1 receptor, 7.89.
As to `Cc1ccc(-n2cccn2)c(C(=O)N2CCC[C@@]2(C)c2nc3c(C)c(Cl)ccc3[nH]2)n1` [Ex. 5.44], the figures for the pIC50 on human orexin-2 receptor and on human orexin-1 receptor were 7.54 and 8.10, respectively.
`C=C1C[C@@H](c2nc3cc(Cl)c(C(F)(F)F)cc3[nH]2)N(C(=O)c2cc(OC)c(OC)cc2-n2nccn2)C1` [Ex. 6.186]: the pIC50 is 8.22 at human orexin-2 receptor and 7.57 on human orexin-1 receptor.
As to `Cc1c(Cl)ccc2[nH]c([C@]3(C)CCCN3C(=O)c3nc(-c4cccc(F)c4F)sc3-c3ccc(F)cc3)nc12` [Ex. 5.251], the pIC50 is 6.11 at human orexin-2 receptor and 7.89 at human orexin-1 receptor.
On to `Cc1c(Cl)ccc2[nH]c([C@]3(C)CCCN3C(=O)c3cc(F)ccc3-n3nccn3)nc12` [Ex. 5.45], for which the pIC50 at human orexin-2 receptor is 7.92; at human orexin-1 receptor, 8.30.
As for `Cc1ccc(-c2ccccc2C)c(C(=O)N2CCC[C@@]2(C)c2nc3cc(C(F)(F)F)ccc3[nH]2)c1` [Ex. 5.186], the figures for the pIC50 at human orexin-2 receptor and at human orexin-1 receptor were 6.53 and 6.92, respectively.
On to `C=C1C[C@@H](c2nc3cc(C)c(C)cc3[nH]2)N(C(=O)c2cc(C)ccc2-n2nccn2)C1` [Ex. 6.61], for which the pIC50 on human orexin-2 receptor was 8.40; on human orexin-1 receptor it was 7.39.
As for `Cc1ccc(C(=O)N2CCC[C@@]2(C)c2nc3cc(OC(F)(F)F)ccc3[nH]2)c(-c2ccccc2)c1` [Ex. 5.242], the pIC50 on human orexin-2 receptor was 6.40; on human orexin-1 receptor, 7.25.
As for `C=C1C[C@@H](c2nc3cc(C)c(C)cc3[nH]2)N(C(=O)c2cc(OC)c(OC)cc2-n2nccn2)C1` [Ex. 6.200], the pIC50 is 8.00 at human orexin-2 receptor and 7.24 at human orexin-1 receptor.
On to `Cc1nc(C(=O)N2CC[C@H](C)[C@H]2c2nc3cc(C(F)(F)F)ccc3[nH]2)c(-c2ccccc2Cl)s1` [Ex. 4.146], for which the pIC50 is 5.68 on human orexin-2 receptor and 8.22 on human orexin-1 receptor.
For the compound `Cc1nc(C(=O)N2C[C@H](F)C[C@H]2c2nc3c(C)c(Cl)ccc3[nH]2)c(-c2cccc(Cl)c2)s1` [Ex. 2.10], the pIC50 is 8.10 on human orexin-2 receptor and 8.30 on human orexin-1 receptor.
In the same order, the values of `Cc1cc2[nH]c([C@@H]3[C@@H](C)CCN3C(=O)c3c(-c4cccnc4)ccc(C)c3F)nc2cc1Cl` [Ex. 4.117] are 5.59 and 7.80.
In the same order, the values of `Cc1ccc(-c2ccccc2F)c(C(=O)N2CCC[C@@]2(C)c2nc3cc(C)c(C)cc3n2CCF)c1` [Ex. 7.52] are 7.22 and 7.57.
Turning to `Cc1ccc(-c2cccc(F)c2)c(C(=O)N2CCC[C@@]2(C)c2nc3cc(C)c(C)cc3[nH]2)c1` [Ex. 5.97], the results for the pIC50 at human orexin-2 receptor and on human orexin-1 receptor were 7.96 and 8.22, respectively.
In the same order, the values of `COc1cccc(-c2sc(C)nc2C(=O)N2CC[C@H](C)[C@H]2c2nc3cc(C(F)(F)F)ccc3[nH]2)c1` [Ex. 4.137] are 5.51 and 8.30.
In the case of `Cc1ccc(-c2ncccn2)c(C(=O)N2CCC[C@@]2(C)c2nc3cccc(C)c3[nH]2)c1` [Ex. 5.278], the results for the pIC50 on human orexin-2 receptor and on human orexin-1 receptor were 7.51 and 7.66, respectively.
As for `Cc1nc(C(=O)N2CC[C@H](C)[C@H]2c2nc3c(Cl)cccc3[nH]2)c(-c2ccc(Cl)cc2)s1` [Ex. 4.120], the results for the pIC50 on human orexin-2 receptor and on human orexin-1 receptor were 6.14 and 7.85, respectively.
In the same order, the values of `Cc1cc(F)ccc1-c1nc(C(=O)N2CCC[C@@]2(C)c2nc3c(C)c(Cl)ccc3[nH]2)c(-c2ccc(F)cc2)s1` [Ex. 5.259] are 5.33 and 7.54.
As for `Cc1nc(C(=O)N2CC[C@H](C)[C@H]2c2nc3c(C)cc(Cl)cc3[nH]2)c(-c2cc(F)cc(F)c2)s1` [Ex. 4.98], the pIC50 at human orexin-2 receptor was 5.89; at human orexin-1 receptor, 8.40.
In the same order, the values of `C=C1C[C@@H](c2nc3cc(OC)ccc3[nH]2)N(C(=O)c2c(F)cccc2-n2nccn2)C1` [Ex. 6.19] are 7.21 and 5.82.
Turning to `COc1ccc2[nH]c([C@@H]3CCCN3C(=O)c3nc(C)ccc3-n3nccn3)nc2c1` [Ex. 1.173], the figures for the pIC50 on human orexin-2 receptor and at human orexin-1 receptor were 7.27 and 5.41, respectively.
Regarding `Cc1nc(C(=O)N2CC[C@H](C)[C@H]2c2nc3cc(F)c(F)cc3[nH]2)c(-c2cccc(Cl)c2)s1` [Ex. 4.12], the figures for the pIC50 at human orexin-2 receptor and at human orexin-1 receptor were 5.31 and 7.64, respectively.
The corresponding values for `CO[C@H]1CN(C(=O)c2cc(C(F)(F)F)ccc2-n2nccn2)C(C)(c2nc3c(C)c(Cl)ccc3[nH]2)C1` (stereo partly drawn) [Ex. 3.50] are 6.60 and 6.63.
`C=C1CC(c2nc3c(Br)cccc3[nH]2)N(C(=O)c2cc(C)sc2-c2ccc(C)c(C)c2)C1` (stereo not drawn) [Ex. 6.78]: the pIC50 on human orexin-2 receptor is 7.92; at human orexin-1 receptor, 8.30.
As to `COc1ccc(-c2ccccc2C(=O)N2CCC[C@@]2(C)c2nc3cc(C)c(C)cc3[nH]2)cc1` [Ex. 5.102], the pIC50 is 7.09 at human orexin-2 receptor and 7.47 on human orexin-1 receptor.
On to `CSc1ccc2nc([C@@H]3CCCN3C(=O)c3cnc(C)nc3-c3ccc(Br)c(Cl)c3)[nH]c2c1` [Ex. 1.58], for which the pIC50 at human orexin-2 receptor was 7.62; at human orexin-1 receptor, 7.49.

Source of the values: patent publication US9732075B2, “Benzimidazole-proline derivatives” (IDORSIA PHARMACEUTICALS LTD, priority 2012, dated 2017).
